According to PubChem BioAssay AID1259407 (Chemical Carcinogenesis Research Information System (CCRIS), 2018):
Active and inactive are the calls of the source. The rule behind the calls is not given here.

System: CCRIS mutagenicity, Ames/micronucleus/aberration tests
Assay: CCRIS mutagenicity studies
[1] = Test System: AMES SALMONELLA TYPHIMURIUM, Strain/Indicator: TA98, Metabolic Activation: NONE, Method: PREINCUBATION
[2] = Test System: AMES SALMONELLA TYPHIMURIUM, Strain/Indicator: TA100, Metabolic Activation: NONE, Method: PREINCUBATION
[3] = Test System: AMES SALMONELLA TYPHIMURIUM, Strain/Indicator: TA1535, Metabolic Activation: NONE, Method: PREINCUBATION
[4] = Test System: AMES SALMONELLA TYPHIMURIUM, Strain/Indicator: TA1537, Metabolic Activation: NONE, Method: PREINCUBATION

Question: How did the mutagenic call [1] turn out when `Nc1ccc(S(=O)(=O)O)c2ccccc12` was run?
Answer: The mutagenic call was “inactive; negative”.

Question: What about the mutagenic call (Test System: AMES SALMONELLA TYPHIMURIUM, Strain/Indicator: TA98, Metabolic Activation: RAT LIVER S-9, PHENOBARBITAL AND BETA-NAPHTHOFLAVONE, Method: PREINCUBATION) of the same compound?
Answer: Its mutagenic call is “inactive; negative”.

Question: What about the mutagenic call [2] of the same compound?
Answer: The mutagenic call was “inactive; negative”.

Question: What about the mutagenic call (Test System: AMES SALMONELLA TYPHIMURIUM, Strain/Indicator: TA100, Metabolic Activation: RAT LIVER S-9, PHENOBARBITAL AND BETA-NAPHTHOFLAVONE, Method: PREINCUBATION) of the same compound?
Answer: The mutagenic call was “inactive; negative”.

Question: What about the mutagenic call [3] of the same compound?
Answer: Its mutagenic call is “inactive; negative”.

Question: And the mutagenic call (Test System: AMES SALMONELLA TYPHIMURIUM, Strain/Indicator: TA1535, Metabolic Activation: RAT LIVER S-9, PHENOBARBITAL AND BETA-NAPHTHOFLAVONE, Method: PREINCUBATION)?
Answer: The mutagenic call was “inactive; negative”.

Question: And the mutagenic call [4]?
Answer: The mutagenic call was “inactive; negative”.

Question: And the mutagenic call (Test System: AMES SALMONELLA TYPHIMURIUM, Strain/Indicator: TA1537, Metabolic Activation: RAT LIVER S-9, PHENOBARBITAL AND BETA-NAPHTHOFLAVONE, Method: PREINCUBATION)?
Answer: The mutagenic call was “inactive; negative”.

Question: And the mutagenic call (Test System: AMES SALMONELLA TYPHIMURIUM, Strain/Indicator: TA1538, Metabolic Activation: NONE, Method: PREINCUBATION)?
Answer: The mutagenic call was “inactive; negative”.

Question: What about the mutagenic call (Test System: AMES SALMONELLA TYPHIMURIUM, Strain/Indicator: TA1538, Metabolic Activation: RAT LIVER S-9, PHENOBARBITAL AND BETA-NAPHTHOFLAVONE, Method: PREINCUBATION) of the same compound?
Answer: Its mutagenic call is “inactive; negative”.

Question: What about the mutagenic call (Test System: E.COLI, Strain/Indicator: WP2UVRA, Metabolic Activation: NONE, Method: PREINCUBATION) of the same compound?
Answer: Its mutagenic call is “inactive; negative”.

Question: And the mutagenic call (Test System: E.COLI, Strain/Indicator: WP2UVRA, Metabolic Activation: RAT LIVER S-9, PHENOBARBITAL AND BETA-NAPHTHOFLAVONE, Method: PREINCUBATION)?
Answer: Its mutagenic call is “inactive; negative”.

Question: What does the source list for `CC1(C)[C@@H]2CC[C@@]1(C)[C@@H](O)C2`?
Answer: mutagenic call (Test System: AMES SALMONELLA TYPHIMURIUM, Strain/Indicator: TA97, Metabolic Activation: NONE, Method: PREINCUBATION): inactive; negative; mutagenic call (Test System: AMES SALMONELLA TYPHIMURIUM, Strain/Indicator: TA97, Metabolic Activation: NONE, Method: PREINCUBATION (20 MIN)): inactive; negative; mutagenic call (Test System: AMES SALMONELLA TYPHIMURIUM, Strain/Indicator: TA97, Metabolic Activation: RAT, LIVER, S-9, AROCLOR 1254, Method: PREINCUBATION): inactive; negative; mutagenic call (Test System: AMES SALMONELLA TYPHIMURIUM, Strain/Indicator: TA97, Metabolic Activation: S-9, Method: PREINCUBATION (20 MIN)): inactive; negative; mutagenic call (Test System: AMES SALMONELLA TYPHIMURIUM, Strain/Indicator: TA98, Metabolic Activation: NONE, Method: PREINCUBATION (20 MIN)): inactive; negative; mutagenic call (Test System: AMES SALMONELLA TYPHIMURIUM, Strain/Indicator: TA98, Metabolic Activation: S-9, Method: PREINCUBATION (20 MIN)): inactive; negative; mutagenic call (Test System: AMES SALMONELLA TYPHIMURIUM, Strain/Indicator: TA100, Metabolic Activation: NONE, Method: PREINCUBATION (20 MIN)): inactive; negative; mutagenic call (Test System: AMES SALMONELLA TYPHIMURIUM, Strain/Indicator: TA100, Metabolic Activation: S-9, Method: PREINCUBATION (20 MIN)): inactive; negative; mutagenic call (Test System: AMES SALMONELLA TYPHIMURIUM, Strain/Indicator: TA102, Metabolic Activation: NONE, Method: PREINCUBATION): inactive; negative; mutagenic call (Test System: AMES SALMONELLA TYPHIMURIUM, Strain/Indicator: TA102, Metabolic Activation: RAT, LIVER, S-9, AROCLOR 1254, Method: PREINCUBATION): inactive; negative

Question: What does the source list for `CN(C)CCN(Cc1ccc(Cl)s1)c1ccccn1`?
Answer: mutagenic call (Test System: AMES SALMONELLA TYPHIMURIUM, Strain/Indicator: TA98, Metabolic Activation: HAMSTER, LIVER, S-9, AROCLOR 1254 (10%), Method: PREINCUBATION): inactive; negative; mutagenic call [1]: inactive; negative; mutagenic call (Test System: AMES SALMONELLA TYPHIMURIUM, Strain/Indicator: TA98, Metabolic Activation: RAT, LIVER, S-9, AROCLOR 1254 (10%), Method: PREINCUBATION): inactive; negative; mutagenic call (Test System: AMES SALMONELLA TYPHIMURIUM, Strain/Indicator: TA100, Metabolic Activation: HAMSTER, LIVER, S-9, AROCLOR 1254 (10%), Method: PREINCUBATION): inactive; negative; mutagenic call [2]: inactive; negative; mutagenic call (Test System: AMES SALMONELLA TYPHIMURIUM, Strain/Indicator: TA100, Metabolic Activation: RAT, LIVER, S-9, AROCLOR 1254 (10%), Method: PREINCUBATION): inactive; negative; mutagenic call (Test System: AMES SALMONELLA TYPHIMURIUM, Strain/Indicator: TA1535, Metabolic Activation: HAMSTER, LIVER, S-9, AROCLOR 1254 (10%), Method: PREINCUBATION): inactive; negative; mutagenic call [3]: inactive; negative; mutagenic call (Test System: AMES SALMONELLA TYPHIMURIUM, Strain/Indicator: TA1535, Metabolic Activation: RAT, LIVER, S-9, AROCLOR 1254 (10%), Method: PREINCUBATION): inactive; negative; mutagenic call (Test System: AMES SALMONELLA TYPHIMURIUM, Strain/Indicator: TA1537, Metabolic Activation: HAMSTER, LIVER, S-9, AROCLOR 1254 (10%), Method: PREINCUBATION): inactive; negative; mutagenic call [4]: inactive; negative; mutagenic call (Test System: AMES SALMONELLA TYPHIMURIUM, Strain/Indicator: TA1537, Metabolic Activation: RAT, LIVER, S-9, AROCLOR 1254 (10%), Method: PREINCUBATION): inactive; negative

Question: What does the source list for `CCC(=O)N(O)c1ccc2ccccc2c1`?
Answer: mutagenic call [1]: inactive; negative; mutagenic call (Test System: AMES SALMONELLA TYPHIMURIUM, Strain/Indicator: TA98, Metabolic Activation: RAT, LIVER, CYTOSOL, Method: PREINCUBATION): inactive; negative; mutagenic call (Test System: AMES SALMONELLA TYPHIMURIUM, Strain/Indicator: TA98, Metabolic Activation: RAT, LIVER, MICROSOMES, Method: PREINCUBATION): active; positive

Question: What does the source list for `Nc1ncnc2c1ncn2[C@H]1C[C@H](O)[C@@H](CO)O1`?
Answer: mutagenic call (Test System: AMES SALMONELLA TYPHIMURIUM, Strain/Indicator: TA98, Metabolic Activation: NONE, Method: STANDARD PLATE): inactive; negative; mutagenic call (Test System: AMES SALMONELLA TYPHIMURIUM, Strain/Indicator: TA98, Metabolic Activation: RAT, LIVER, S-9, POLYCHLORINATED BIPHENYLS, Method: STANDARD PLATE): inactive; negative; mutagenic call (Test System: AMES SALMONELLA TYPHIMURIUM, Strain/Indicator: TA100, Metabolic Activation: NONE, Method: STANDARD PLATE): inactive; negative; mutagenic call (Test System: AMES SALMONELLA TYPHIMURIUM, Strain/Indicator: TA100, Metabolic Activation: RAT, LIVER, S-9, POLYCHLORINATED BIPHENYLS, Method: STANDARD PLATE): inactive; negative; mutagenic call (Test System: MOUSE LYMPHOMA, Strain/Indicator: L5178Y (TK+/TK-), Metabolic Activation: NONE, Method: SUSPENSION/PLATE): active; positive
